From publication PMC9029089, “1,5-Disubstituted Acylated 2-Amino-4,5-dihydroimidazoles as a New Class of Retinoic Acid Receptor–Related Orphan Receptor (ROR) Inhibitors” (International Journal of Molecular Sciences, 2022)

These compounds were tested against T1, RORγ (Mus musculus, UniProt P51450) (assay: Gal4-RORγ-LBD UAS-luciferase reporter assay in TRex-CHO-K1 cells (doxycycline-stimulated)). Conditions: individual controls 1295.201-307, 5 μg/ml, triplicate.
T1 construct: mRORγ (Pro-261-end); expressed in transfected cells
T1 sequence (P51450 261-516 limits assumed): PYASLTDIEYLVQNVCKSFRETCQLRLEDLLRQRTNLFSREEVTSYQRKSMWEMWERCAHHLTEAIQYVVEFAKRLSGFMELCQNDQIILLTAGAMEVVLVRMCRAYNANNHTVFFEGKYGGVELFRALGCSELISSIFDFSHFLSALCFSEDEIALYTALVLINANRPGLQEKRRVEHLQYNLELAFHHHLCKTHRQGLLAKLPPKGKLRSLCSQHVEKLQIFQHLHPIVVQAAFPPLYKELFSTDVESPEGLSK
Assay type: cell-based
Source text: The Gal4-DBD-ROR-LBD fusion proteins were subcloned in the pcDNA4/TO expression vector (Thermo Scientific) and transfected into TRex-CHO-K1 cells (Thermo Scientific) for tetracycline-controlled expression of the corresponding ROR proteins. Transfected cells were selected with hygromycin and Zeocin and individual clones for each of the Gal4-RORγ, Gal4-RORα, and Gal4-RORβ cell lines were isolated using a standard serial dilution protocol. Clones with the highest doxycycline-dependent stimulation of luciferase activity were selected for all functional experiments.
For screening FIU libraries, cells were resuspended in Ham’s F-12 assay medium containing 2% charcoal-treated FBS and no selection drugs. […] Cells were allowed to attach for 2 h, followed by compound treatment and stimulation with 20 ng/mL doxycycline for an additional 16–20 h. Appropriate solvent controls, negative controls with no doxycycline, and blanks with no cells were included in every plate. Prior to measuring luciferase activity, 6 µL of 0.15 mg/mL resazurin (Cayman Chemical) in PBS were added and cells were incubated for 1 h at 37 °C. Fluorescence intensity was detected at 545 nm excitation/590 nm emission using a CLARIOstar reader (BMGLabtech) as a measure of cell viability, to identify any potential cytotoxic effect of test compounds and mixtures.
Luminescence was normalized by the fluorescence intensity and the percentage of inhibition was calculated with respect to control cells stimulated with doxycycline in the presence of solvent control (0.1% DMF). All primary screens with individual compounds were performed in triplicate with a final concentration of 5 µg/mL. […] IC50 values were calculated using GraphPrism (GraphPad software).
With CCC(CN1C(NC(=O)Cc2ccccc2)=NCC1Cc1ccccc1)c1ccccc1 (mixture of isomers) [1295.235] the “% Inhibition RORγ 5 μg/ml” value was 35.8%.
In the case of CC(CCN1C(NC(=O)Cc2ccccc2)=NCC1Cc1ccccc1)c1ccccc1 (mixture of isomers) [1295.236], the “% Inhibition RORγ 5 μg/ml” value is reported as 26.8%.
In the case of CC(C)Cc1ccc(C(C)CN2C(NC(=O)Cc3ccccc3)=NCC2Cc2ccccc2)cc1 (mixture of isomers) [1295.245], the “% Inhibition RORγ 5 μg/ml” value is reported as 21.5%.
CCC(C)CN1C(NC(=O)Cc2ccccc2)=NCC1Cc1ccccc1 (mixture of isomers) [1295.256] was tested, and the “% Inhibition RORγ 5 μg/ml” value was -8.1%.
CC(C)Cc1ccc(C(C)C(=O)NC2=NCC(Cc3ccccc3)N2CCc2ccccc2)cc1 (mixture of isomers) [1295.283] was tested, and the “% Inhibition RORγ 5 μg/ml” value was 58.6%.
In the case of CCC(C)C(=O)NC1=NCC(Cc2ccccc2)N1CCc1ccccc1 (mixture of isomers) [1295.296], the “% Inhibition RORγ 5 μg/ml” value is reported as 41.7%.
C[C@H]1CN=C(NC(=O)Cc2ccccc2)N1CCc1ccccc1 [1295.201] was tested, and the “% Inhibition RORγ 5 μg/ml” value was -40.7%.
For O=C(Cc1ccccc1)NC1=NC[C@H](Cc2ccccc2)N1CCc1ccccc1 [1295.202], the “% Inhibition RORγ 5 μg/ml” value was 0.0%.
In the case of O=C(Cc1ccccc1)NC1=NCCN1CCc1ccccc1 [1295.203], the “% Inhibition RORγ 5 μg/ml” value is reported as -29.5%.
For CC(C)C[C@H]1CN=C(NC(=O)Cc2ccccc2)N1CCc1ccccc1 [1295.205], the “% Inhibition RORγ 5 μg/ml” value was 54.1%.
For CC(C)[C@H]1CN=C(NC(=O)Cc2ccccc2)N1CCc1ccccc1 [1295.206], the “% Inhibition RORγ 5 μg/ml” value was 32.7%.
O=C(Cc1ccccc1)NC1=NC[C@H](Cc2ccc(O)cc2)N1CCc1ccccc1 [1295.207] was tested, and the “% Inhibition RORγ 5 μg/ml” value was -85.0%.
With C[C@@H]1CN=C(NC(=O)Cc2ccccc2)N1CCc1ccccc1 [1295.208] the “% Inhibition RORγ 5 μg/ml” value was -9.3%.
O=C(Cc1ccccc1)NC1=NC[C@@H](Cc2ccccc2)N1CCc1ccccc1 [1295.209] was tested, and the “% Inhibition RORγ 5 μg/ml” value was 46.8%.
CC(C)C[C@@H]1CN=C(NC(=O)Cc2ccccc2)N1CCc1ccccc1 [1295.211] was tested, and the “% Inhibition RORγ 5 μg/ml” value was 38.8%.
CC(C)[C@@H]1CN=C(NC(=O)Cc2ccccc2)N1CCc1ccccc1 [1295.212] was tested, and the “% Inhibition RORγ 5 μg/ml” value was 33.3%.
For CC1(C)CN=C(NC(=O)Cc2ccccc2)N1CCc1ccccc1 [1295.214], the “% Inhibition RORγ 5 μg/ml” value was 1.6%.
For CCC[C@H]1CN=C(NC(=O)Cc2ccccc2)N1CCc1ccccc1 [1295.215], the “% Inhibition RORγ 5 μg/ml” value was 31.5%.
CCC[C@@H]1CN=C(NC(=O)Cc2ccccc2)N1CCc1ccccc1 [1295.216] was tested, and the “% Inhibition RORγ 5 μg/ml” value was 24.5%.
In the case of CCCC[C@H]1CN=C(NC(=O)Cc2ccccc2)N1CCc1ccccc1 [1295.217], the “% Inhibition RORγ 5 μg/ml” value is reported as 13.0%.
For CCCC[C@@H]1CN=C(NC(=O)Cc2ccccc2)N1CCc1ccccc1 [1295.218], the “% Inhibition RORγ 5 μg/ml” value was -11.7%.
With O=C(Cc1ccccc1)NC1=NC[C@H](c2ccccc2)N1CCc1ccccc1 [1295.219] the “% Inhibition RORγ 5 μg/ml” value was 0.1%.
In the case of O=C(Cc1ccccc1)NC1=NC[C@@H](c2ccccc2)N1CCc1ccccc1 [1295.220], the “% Inhibition RORγ 5 μg/ml” value is reported as -5.2%.
In the case of O=C(Cc1ccccc1)NC1=NC[C@H](Cc2ccc3ccccc3c2)N1CCc1ccccc1 [1295.221], the “% Inhibition RORγ 5 μg/ml” value is reported as 31.3%.
In the case of O=C(Cc1ccccc1)NC1=NC[C@@H](Cc2ccc3ccccc3c2)N1CCc1ccccc1 [1295.222], the “% Inhibition RORγ 5 μg/ml” value is reported as 22.4%.
For O=C(Cc1ccccc1)NC1=NC[C@H](CC2CCCCC2)N1CCc1ccccc1 [1295.223], the “% Inhibition RORγ 5 μg/ml” value was 3.4%.
In the case of O=C(Cc1ccccc1)NC1=NC[C@@H](CC2CCCCC2)N1CCc1ccccc1 [1295.224], the “% Inhibition RORγ 5 μg/ml” value is reported as 9.6%.
For O=C(Cc1ccccc1)NC1=NC[C@H](Cc2ccc(Cl)cc2)N1CCc1ccccc1 [1295.225], the “% Inhibition RORγ 5 μg/ml” value was -32.6%.
With O=C(Cc1ccccc1)NC1=NC[C@@H](Cc2ccc(Cl)cc2)N1CCc1ccccc1 [1295.226] the “% Inhibition RORγ 5 μg/ml” value was 6.9%.
In the case of O=C(Cc1ccccc1)NC1=NC[C@H](Cc2ccc(F)cc2)N1CCc1ccccc1 [1295.227], the “% Inhibition RORγ 5 μg/ml” value is reported as -8.2%.
For O=C(Cc1ccccc1)NC1=NC[C@@H](Cc2ccc(F)cc2)N1CCc1ccccc1 [1295.228], the “% Inhibition RORγ 5 μg/ml” value was 31.3%.
